Structures are written as SMILES.

Test [1] concerns rats rendered neuropathic via the SNI Model. Kind of test: Analgesic effect in spared nerve injury (SNI) model of neuropathic pain. Format: in vivo, Sprague-Dawley rats. Particulars: mean ± standard error of the mean. As for the experimental part:
(§1) Adult, male Sprague-Dawley rats were obtained from Charles River Laboratories (Wilmington, Mass.) and housed under standard conditions at the Institut Armand-Frappier (Laval, QC). Food and water were provided to experimental animals ad libitum, and rats weighed 175-200 grams at the time of assessment.
(§2) Compounds were prepared for intraperitoneal administration by dissolving them in a vehicle of hydroxypropyl methylcellulose (Sigma, St-Louis, Mo.); total volume of solution administered to rats was 10 ml/kg.
Neuropathic pain was induced in rats via spared nerve injury (SNI) of the left sciatic nerve in accordance with the procedure described by Decosterd & Woolf (Pain 2000; 87(2):149-58). Briefly, under isoflurane anesthesia, the sciatic nerve was exposed by dissection at the level of lower thigh, and a lesion of two of the three terminal branches of the nerve (tibial and common peroneal nerves) were performed leaving the remaining sural nerve intact. The incision was closed-up using simple suturing, and the rats allowed to recover.
(§3) After approximately two weeks, a stable allodynia to blunt mechanical stimuli was identified in the hind paw ipsilateral to the SNI or CCI, manifested as a reduction of 50% withdrawal threshold, and identified using the Von Frey technique, as described by Chaplan et al. (J. Neurosci. Methods 1994; 53(1):55-63), or the Hargreaves method, as described by Hargreaves et al. (Pain 1988; 32(1):77-88). Rats were considered to be fully neuropathic upon displaying a 50% withdrawal threshold of ≦3.5 grams consistently over the course of 72 hours.
(§4) Compounds were administered to neuropathic rats via acute local delivery in the intraperitoneal space or by oral gavage.

Test [2] concerns rats rendered neuropathic via the CCI model. The experiment in a line: Analgesic effect in chronic constriction injury (CCI) model of neuropathic pain. Format: in vivo, Sprague-Dawley rats. Particulars: mean ± standard error of the mean. As for the experimental part: as §1, §2
Alternatively, neuropathic pain was induced in rats via chronic constriction injury (CCI) of the left sciatic nerve with the procedure described by Bennett & Xie (Pain 1988; 33(1):87-107). Briefly, under isoflurane anaesthesia, the sciatic nerve was exposed by dissection at the level of the lower thigh and four loose ligatures (USP 4/0, Braun Melsaugen, FRG) were implanted around the nerve—with due attention not to interrupt the epineural circulation. The incision was closed-up using simple suturing, and the rats allowed to recover.
as §3, §4

In test [3] the test system is mice subjected to the Minimal Clonic Seizure model. Kind of test: Minimal Clonic Seizure test (psychomotor seizure model of partial epilepsy, 6 Hz). Format: in vivo. Particulars: 100 mg/kg intraperitoneally, 32 mA, 3 seconds. As for the experimental part:
Adult mice are pretreated with 100 mg/kg of test compound, acutely administered intraperitoneally. At varying times (15, 30, 60, 120 and 240 minutes post-treatment), animals are challenged with sufficient current (32 mA, 6 Hz, for 3 seconds) delivered through corneal electrodes to elicit a psychomotor seizure. Untreated mice will display seizures characterized by a minimal clonic phase followed by stereotyped, automatistic behaviors similar to the aura of human patients with partial seizures. Animals not displaying this behavior are considered protected (Barton et al., Epilepsy Res. 2001; 47(3):217-27). Results are expressed as the number of animal protected out of the number of animal tested over time.

`Cc1cc(O)nc(SCc2c(Cl)ccnc2Cl)n1` [2-{[(2,4-dichloropyridin-3-yl)methyl]sulfanyl}-6-methylpyrimidin-4-ol]: in test [1], the “Peak 50% withdrawal threshold” value is listed as 7.74 ± 2.13 g.

For the compound `CCc1ncccc1CSc1nc(C)cc(O)n1` [2-{[(2-ethylpyridin-3-yl)methyl]sulfanyl}-6-methylpyrimidin-4-ol], the “Peak paw withdrawal latency” value in test [2] came to 10.46 ± 1.16 s.

As to `Oc1cc(C(F)(F)F)nc(SCc2c(Cl)cncc2Cl)n1` [2-{[(3,5-dichloropyridin-4-yl)methyl]sulfanyl}-6-(trifluoromethyl)pyrimidin-4-ol], the “Peak 50% withdrawal threshold” value in test [1] is reported as 5.77 ± 1.01 g. The “Peak paw withdrawal latency” value in test [2] is 11.7 ± 1.43 s.

Consider `Cc1cc(O)nc(SCc2c(Cl)cncc2Cl)n1` [2-{[(3,5-dichloropyridin-4-yl)methyl]sulfanyl}-6-methylpyrimidin-4-ol], for which the “Peak 50% withdrawal threshold” value in test [1] came out at 9.13 ± 1.60 g. Besides, the “Peak paw withdrawal latency” value in test [2] turned out to be 14.49 ± 1.24 s. For the same compound, the “Protected Animals/tested animals” value is 3/4 in test [3] (15 minutes post-treatment); 3/4 in test [3] (30 minutes post-treatment); 3/4 in test [3] (60 minutes post-treatment); 1/4 in test [3] (120 minutes post-treatment); 0/4 in test [3] (240 minutes post-treatment).

With `CCc1cncc(CC)c1CSc1nc(O)cc(C(F)(F)F)n1` [2-{[(3,5-diethylpyridin-4-yl)methyl]sulfanyl}-6-(trifluoromethyl)pyrimidin-4-ol], the “Peak 50% withdrawal threshold” value in test [1] is 6.04 ± 1.17 g.

Take `CCc1cncc(Cl)c1CSc1nc(C)cc(O)n1` [2-{[(3-chloro-5-ethylpyridin-4-yl)methyl]sulfanyl}-6-methylpyrimidin-4-ol]: the “Peak 50% withdrawal threshold” value in test [1] is recorded as 8.73 ± 1.75 g.

`Cc1cc(O)nc(SCc2nn(C)cc2Cl)n1` [2-{[(4-chloro-1-methyl-1H-pyrazol-3-yl)methyl]sulfanyl}-6-methylpyrimidin-4-ol]: the “Peak paw withdrawal latency” value in test [2] came to 11.98 ± 1.71 s.

`Cc1cc(O)nc(SCc2c(Cl)ccc(Cl)c2Cl)n1` [6-methyl-2-{[(2,3,6-trichlorophenyl)methyl]sulfanyl}pyrimidin-4-ol]: in test [1], the “Peak 50% withdrawal threshold” value is on record as 6.24 ± 1.48 g. Besides, the “Protected Animals/tested animals” value is listed as 1/4 in test [3] (15 minutes post-treatment); 3/4 in test [3] (30 minutes post-treatment); 2/4 in test [3] (60 minutes post-treatment); 1/4 in test [3] (120 minutes post-treatment); 0/4 in test [3] (240 minutes post-treatment).

With `CCc1ncsc1CSc1nc(O)cc(C(F)(F)F)n1` [Example 164, 2-{[(4-ethyl-1,3-thiazol-5-yl)methyl]sulfanyl}-6-(trifluoromethyl)pyrimidin-4-ol], in test [2], the “Peak paw withdrawal latency” value was determined as 10.45 ± 0.47 s.

Values taken from US9040538B2, “Pyrimidines as novel therapeutic agents” (Universite Laval, priority 2009, dated 2015).
